Assay results from BindingDB's records for doi:10.1021/jm00378a002 (1985).
pKi: −log10 of the molar value.

Target: uridine-cytidine kinase (Mus musculus)
Experiment: Binding affinity to uridine kinase from L1210. was determined from the dixon plot

pKi: 3.64
Structure (SMILES): O=c1ccn([C@@H]2C=C(CO)[C@@H](O)[C@H]2O)c(=O)[nH]1 [1-(4,5-Dihydroxy-3-hydroxymethyl-cyclopent-2-enyl)-4-hydroxy-1H-pyrimidin-2-one]
